Earlier results in patent publication US20060246133A1, “Controlled release pharmaceutical compositions of liothyronine and methods of making and using the same” (priority 2005, published 2006).

Details: when administered in an immediate release form

half-life: about 10 hours
Compound: N[C@@H](Cc1cc(I)c(Oc2ccc(O)c(I)c2)c(I)c1)C(=O)O [liothyronine]
